# Experiments:
# Experiment in all cases: radioligand competition with 3H-isopentenyladenine, plant microsomes
# Format in all cases: binding
# Settings in all cases: 1 µM compound vs 3H-iP (2 pmol per sample), membranes of N. benthamiana
# CRE1/AHK4 = molecular target: T1, CRE1/AHK4 (Arabidopsis thaliana, UniProt Q9C5U0)
# T1 construct: receptor fused with GFP, transiently expressed in Nicotiana benthamiana leaves; microsomal membranes
# Source text: radioligand competition with 3H-isopentenyladenine, plant microsomes on CRE1/AHK4
# AHK3 = molecular target: T2, AHK3 (Arabidopsis thaliana, UniProt Q9C5U1)
# T2 construct: receptor fused with GFP, transiently expressed in Nicotiana benthamiana leaves; microsomal membranes
# T2 sequence (Q9C5U1 1-1036): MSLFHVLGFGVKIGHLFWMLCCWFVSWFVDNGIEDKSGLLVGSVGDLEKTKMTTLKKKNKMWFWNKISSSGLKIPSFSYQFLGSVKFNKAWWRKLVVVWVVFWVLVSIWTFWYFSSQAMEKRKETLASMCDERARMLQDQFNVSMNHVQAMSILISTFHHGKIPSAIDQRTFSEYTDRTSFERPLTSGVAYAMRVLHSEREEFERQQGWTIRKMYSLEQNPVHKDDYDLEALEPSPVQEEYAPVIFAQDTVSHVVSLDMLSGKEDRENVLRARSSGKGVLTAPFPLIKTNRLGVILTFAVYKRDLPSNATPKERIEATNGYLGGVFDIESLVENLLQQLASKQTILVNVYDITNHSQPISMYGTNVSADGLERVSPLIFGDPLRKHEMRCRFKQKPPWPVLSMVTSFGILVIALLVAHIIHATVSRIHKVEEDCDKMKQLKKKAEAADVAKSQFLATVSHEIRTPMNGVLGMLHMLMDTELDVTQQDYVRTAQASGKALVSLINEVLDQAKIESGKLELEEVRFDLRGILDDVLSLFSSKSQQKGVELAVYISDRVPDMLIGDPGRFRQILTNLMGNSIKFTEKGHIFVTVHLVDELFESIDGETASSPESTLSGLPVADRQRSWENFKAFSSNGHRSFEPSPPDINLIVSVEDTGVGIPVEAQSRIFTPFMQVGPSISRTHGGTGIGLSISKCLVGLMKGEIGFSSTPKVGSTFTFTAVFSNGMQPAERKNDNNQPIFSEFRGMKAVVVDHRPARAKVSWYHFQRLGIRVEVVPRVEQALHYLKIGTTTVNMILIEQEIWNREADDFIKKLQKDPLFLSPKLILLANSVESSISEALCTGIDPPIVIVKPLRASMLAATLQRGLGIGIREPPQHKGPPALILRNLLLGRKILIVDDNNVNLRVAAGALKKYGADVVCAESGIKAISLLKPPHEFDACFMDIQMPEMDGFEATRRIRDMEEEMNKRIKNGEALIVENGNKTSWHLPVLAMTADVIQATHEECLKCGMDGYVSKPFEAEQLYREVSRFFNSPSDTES
# Source text: radioligand competition with 3H-isopentenyladenine, plant microsomes on AHK3
# AHK2 = molecular target: T3, AHK2 (Arabidopsis thaliana, UniProt Q9C5U2)
# T3 construct: receptor fused with GFP, transiently expressed in Nicotiana benthamiana leaves; microsomal membranes
# T3 sequence (Q9C5U2 1-1176): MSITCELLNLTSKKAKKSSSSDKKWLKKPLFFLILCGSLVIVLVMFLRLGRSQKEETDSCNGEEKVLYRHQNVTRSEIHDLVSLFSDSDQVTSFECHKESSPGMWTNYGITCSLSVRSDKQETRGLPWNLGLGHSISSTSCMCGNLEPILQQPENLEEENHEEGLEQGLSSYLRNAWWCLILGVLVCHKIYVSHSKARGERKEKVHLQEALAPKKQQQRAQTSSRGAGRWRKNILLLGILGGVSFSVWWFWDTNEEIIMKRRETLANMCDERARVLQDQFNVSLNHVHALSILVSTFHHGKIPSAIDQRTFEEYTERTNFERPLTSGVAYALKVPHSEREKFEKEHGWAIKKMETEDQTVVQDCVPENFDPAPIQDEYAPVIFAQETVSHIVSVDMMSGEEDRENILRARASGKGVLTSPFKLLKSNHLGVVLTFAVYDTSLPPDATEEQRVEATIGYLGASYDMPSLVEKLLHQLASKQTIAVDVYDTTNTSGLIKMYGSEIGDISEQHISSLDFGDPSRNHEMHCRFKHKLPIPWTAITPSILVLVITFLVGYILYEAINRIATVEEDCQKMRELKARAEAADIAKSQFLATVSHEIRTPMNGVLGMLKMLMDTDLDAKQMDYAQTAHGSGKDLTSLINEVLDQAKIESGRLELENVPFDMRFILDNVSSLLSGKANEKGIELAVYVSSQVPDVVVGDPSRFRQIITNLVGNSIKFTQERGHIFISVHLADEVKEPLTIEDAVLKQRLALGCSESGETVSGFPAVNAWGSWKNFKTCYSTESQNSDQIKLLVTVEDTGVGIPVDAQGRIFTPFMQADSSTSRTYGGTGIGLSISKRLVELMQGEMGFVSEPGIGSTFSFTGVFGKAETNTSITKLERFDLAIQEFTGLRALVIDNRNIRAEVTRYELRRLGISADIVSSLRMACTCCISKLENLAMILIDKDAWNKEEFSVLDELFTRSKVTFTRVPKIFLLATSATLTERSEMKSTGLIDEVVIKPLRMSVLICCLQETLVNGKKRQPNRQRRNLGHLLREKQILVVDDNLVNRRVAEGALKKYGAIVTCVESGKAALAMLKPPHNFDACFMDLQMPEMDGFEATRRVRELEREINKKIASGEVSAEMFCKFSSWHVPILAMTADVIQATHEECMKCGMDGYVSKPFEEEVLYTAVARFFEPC
# Source text: radioligand competition with 3H-isopentenyladenine, plant microsomes on AHK2
# T1 sequence (Q9C5U0 whole entry, the tested form may be a part): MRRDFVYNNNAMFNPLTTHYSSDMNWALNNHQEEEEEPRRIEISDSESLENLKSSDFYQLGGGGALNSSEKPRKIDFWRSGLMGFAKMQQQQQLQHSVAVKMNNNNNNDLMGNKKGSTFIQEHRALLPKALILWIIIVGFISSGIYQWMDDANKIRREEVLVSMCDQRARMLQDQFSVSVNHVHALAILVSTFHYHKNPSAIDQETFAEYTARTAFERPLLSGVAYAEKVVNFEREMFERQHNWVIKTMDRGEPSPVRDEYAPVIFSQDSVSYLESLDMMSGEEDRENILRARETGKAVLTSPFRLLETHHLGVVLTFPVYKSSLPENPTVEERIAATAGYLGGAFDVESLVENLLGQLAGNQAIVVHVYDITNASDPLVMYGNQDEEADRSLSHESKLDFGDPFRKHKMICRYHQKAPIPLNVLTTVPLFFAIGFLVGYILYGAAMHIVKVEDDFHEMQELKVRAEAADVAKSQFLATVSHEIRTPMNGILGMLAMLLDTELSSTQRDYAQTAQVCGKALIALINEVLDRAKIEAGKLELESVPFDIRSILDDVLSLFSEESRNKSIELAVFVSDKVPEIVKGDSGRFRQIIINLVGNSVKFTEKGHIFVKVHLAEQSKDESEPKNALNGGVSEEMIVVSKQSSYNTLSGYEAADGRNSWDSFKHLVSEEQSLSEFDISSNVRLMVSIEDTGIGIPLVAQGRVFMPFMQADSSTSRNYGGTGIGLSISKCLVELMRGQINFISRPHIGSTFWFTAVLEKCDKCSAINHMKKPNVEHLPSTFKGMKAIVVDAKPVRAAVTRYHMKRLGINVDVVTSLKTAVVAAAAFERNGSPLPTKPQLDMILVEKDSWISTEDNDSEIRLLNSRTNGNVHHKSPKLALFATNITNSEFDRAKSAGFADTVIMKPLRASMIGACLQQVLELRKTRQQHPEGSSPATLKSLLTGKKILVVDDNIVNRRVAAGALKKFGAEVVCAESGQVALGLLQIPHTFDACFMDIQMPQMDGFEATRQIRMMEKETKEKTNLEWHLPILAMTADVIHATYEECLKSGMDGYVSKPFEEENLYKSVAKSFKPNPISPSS
SMILES,CRE1/AHK4 / 1 μM (CRE1/AHK4),АНК3 / 1 μM (AHK3),АНК2 / 1 μM (AHK2)
"C[C@@H](Nc1nc(Cl)nc2[nH]cnc12)c1ccccc1 [7a, 2-chloro,N^6-((R)-α-methylbenzyl) adenine]",74.1 ± 1.6%,88.9 ± 0.7%,42.6 ± 0.4%
"C[C@@H](Nc1nc(F)nc2[nH]cnc12)c1ccccc1 [6a, 2-fluoro,N^6-((R)-α-methylbenzyl) adenine]",97.2 ± 0.9%,99.8 ± 1.5%,92.1 ± 1.0%
"C[C@@H](Nc1nc(N)nc2[nH]cnc12)c1ccccc1 [8a, 2-amino,N^6-((R)-α-methylbenzyl) adenine]",30.4 ± 1.0%,54.7 ± 1.1%,58.8 ± 1.3%
"C[C@H](Nc1nc(Cl)nc2[nH]cnc12)c1ccccc1 [7b, 2-chloro,N^6-((S)-α-methylbenzyl) adenine]",37.1 ± 1.2%,80.6 ± 1.5%,3.1 ± 0.4%
"C[C@@H](Nc1ncnc2[nH]cnc12)c1ccccc1 [5a, N^6-((R)-α-methylbenzyl) adenine]",87.7 ± 1.0%,97.7 ± 1.0%,88.9 ± 0.5%
"C[C@H](Nc1nc(F)nc2nc[nH]c12)c1ccccc1 [6b, 2-fluoro,N^6-((S)-α-methylbenzyl) adenine]",45.8 ± 0.3%,74.7 ± 1.7%,8.7 ± 0.9%
"C[C@H](Nc1ncnc2[nH]cnc12)c1ccccc1 [5b, N^6-((S)-α-methylbenzyl) adenine]",,46.5 ± 2.2%,8.9 ± 4.9%

# Reference: paper PMC9569578, “In Planta, In Vitro and In Silico Studies of Chiral N^6-Benzyladenine Derivatives: Discovery of Receptor-Specific S-Enantiomers with Cytokinin or Anticytokinin Activities” (International Journal of Molecular Sciences, 2022)
